Experimental data: patent US20130158122A1, “EP2 Agonist from Non-Prostanoid Structures Designed as PGE2 Antagonists” (ALLERGAN, INC., priority 2010, published 2013)

System: Beagle dogs
Assay: Intraocular pressure studies in dogs (applanation pneumatonometry)
Type: in vivo
Settings: conscious Beagle dogs, topical to one eye, approx. 35 μl, IOP before and at 2, 4, 6 hours on each day of 5 day study; vehicle in other eye
Experimental: Measurement of intraocular pressure studies in dogs will involve applanation pneumatonometry performed in Beagle dogs of both sexes. The animals will remain conscious throughout the study and will be gently restrained by hand. Compound 4-{[5-chloro-2-(4-chloro-benzyloxy)-benzoylamino]-methyl}-benzoic acid will be administered topically to one eye using a dropper bottle to deliver approximately a 35 μl volume, the other eye received vehicle (1% polysorbate 80 in 5 mM Tris HCl) as a control. Proparacaine at 0.25% was used for corneal anesthesia during tonometry. Intraocular pressure will be determined just before drug administration and at 2, 4, 6 hours thereafter on each day of the 5 day study. Measurement of ocular surface hyperemia will be performed immediately before each of the intraocular pressure readings. Ocular surface hyperemia grading will be semi-quantitative and assessed according to a 5 point scoring scale used for clinical evaluations: 0=none; 0.5=trace; 1=mild; 2=moderate; and 3=severe.

## O=C(O)c1ccc(CNC(=O)c2cc(Cl)ccc2OCc2ccc(Cl)cc2)cc1 [4-{[5-chloro-2-(4-chloro-benzyloxy)-benzoylamino]-methyl}-benzoic acid]
  intraocular pressure: significantly reduce intraocular pressure
